# In ChEMBL document CHEMBL4130359, “Indazole-based ligands for estrogen-related receptor α as potential anti-diabetic agents” (Eur J Med Chem, 2017):
# The source made the active and inactive calls. The calls are words filed in the database; no cut-off is given here.
# Key:
# [1] = tested on: Rattus norvegicus; assay: Effect on HMGCS2 gene expression in epididymal white adipose tissue of Zucker rat sub-chronic fa/fa prediabetic model at 10 mg/kg, po qd for 15 days by microarray analysis relative to control; type: functional
# [2] = tested on: Rattus norvegicus; assay: Effect on NR1H2 gene expression in epididymal white adipose tissue of Zucker rat sub-chronic fa/fa prediabetic model at 10 mg/kg, po qd for 15 days by microarray analysis relative to control; type: functional
# [3] = tested on: Rattus norvegicus; assay: Toxicity in […] model assessed as serum cholesterol level at 10 mg/kg, po qd for 31 days measured on day 32 (reference value: 195 +/- 5.5 mg/dl); type: organism-based; conditions: in vivo, 744 h
# [4] = tested on: Rattus norvegicus; assay: Increase in ADIPOQ mRNA expression in epididymal white adipose tissue of Zucker rat sub-chronic fa/fa prediabetic model at 10 mg/kg, po qd for 15 days by RT-PCR method; type: functional, organism-based
# [5] = tested on: Rattus norvegicus; assay: Effect on LPIN2 gene expression in epididymal white adipose tissue of Zucker rat sub-chronic fa/fa prediabetic model at 10 mg/kg, po qd for 15 days by microarray analysis relative to control; type: functional
# [6] = tested on: Rattus norvegicus; assay: Toxicity in Zucker rat sub-chronic fa/fa prediabetic model assessed as serum creatinine level at 50 mg/kg, po qd for 31 days measured on day 32 (reference value: 0.71 +/- 0.07 mg/dl); type: organism-based; conditions: in vivo, 744 h
# [7] = tested on: Rattus norvegicus; assay: Antidiabetic activity in Zucker rat sub-chronic fa/fa prediabetic model assessed as fasting blood insulin level at 50 mg/kg, po qd for 31 days measured on day 29 post dose (reference value: 8.5 +/- 1.4 ug/L); type: functional
# [8] = tested on: Rattus norvegicus; assay: Antidiabetic activity in po dosed Zucker rat sub-chronic fa/fa prediabetic model assessed as reduction in blood glucose AUC (0 to 120 min) once daily for 31 days measured on day 29 post dose by OGTT; type: functional, organism-based
# [9] = tested on: Rattus norvegicus; assay: Toxicity in […] model assessed as serum ALT level at 50 mg/kg, po qd for 31 days measured on day 32 (reference value: 127 +/- 9 U/L); type: organism-based; conditions: in vivo, 744 h
# [10] = tested on: Rattus norvegicus; assay: Effect on NDUFA6 gene expression in epididymal white adipose tissue of Zucker rat sub-chronic fa/fa prediabetic model at 10 mg/kg, po qd for 15 days by microarray analysis relative to control; type: functional
# [11] = tested on: Rattus norvegicus; assay: Effect on HLA-DMB gene expression in epididymal white adipose tissue of Zucker rat sub-chronic fa/fa prediabetic model at 10 mg/kg, po qd for 15 days by microarray analysis relative to control; type: functional
# [12] = Drug uptake in liver of Zucker rat sub-chronic fa/fa prediabetic model at 12.5 mg/kg, po qd for 11 days; type: ADME, organism-based; conditions: read-out: Drug uptake
# [13] = AUC (0 to 24 hrs) in […] model at 3 mg/kg, po qd measured on day 1 post dose; type: ADME, organism-based; design: dose 3 mg/kg, time < 24 hr, route oral; conditions: in vivo
# [14] = tested on: Rattus norvegicus; assay: Toxicity in Zucker rat sub-chronic fa/fa prediabetic model assessed as serum ALT level at 10 mg/kg, po qd for 31 days measured on day 32 (reference value: 151 +/- 23 U/L); type: organism-based; conditions: in vivo, 744 h
# [15] = tested on: Rattus norvegicus; assay: Toxicity in Zucker rat sub-chronic fa/fa prediabetic model assessed as liver weight at 50 mg/kg, po qd for 31 days measured on day 32 (reference value: 28 +/- 1.6 g); type: organism-based; conditions: in vivo, 744 h
# [16] = tested on: Rattus norvegicus; assay: Toxicity in […] model assessed as serum cholesterol level at 50 mg/kg, po qd for 31 days measured on day 32 (reference value: 195 +/- 5.5 mg/dl); type: organism-based; conditions: in vivo, 744 h
# [17] = tested on: Rattus norvegicus; assay: Toxicity in Zucker rat sub-chronic fa/fa prediabetic model assessed as food intake at 3 mg/kg, po qd for 29 days measured on day 1 to 29 during compound dosing (reference value: 969 +/- 18 g); type: organism-based; conditions: in vivo, 696 h
# [18] = tested on: Rattus norvegicus; assay: Effect on UCP3 gene expression in epididymal white adipose tissue of Zucker rat sub-chronic fa/fa prediabetic model at 10 mg/kg, po qd for 15 days by microarray analysis relative to control; type: functional
# [19] = tested on: Rattus norvegicus; assay: Effect on IL36B gene expression in epididymal white adipose tissue of Zucker rat sub-chronic fa/fa prediabetic model at 10 mg/kg, po qd for 15 days by microarray analysis relative to control; type: functional
# [20] = Cmax in Zucker rat sub-chronic fa/fa prediabetic model at 50 mg/kg, po qd measured on day 1 post dose; type: ADME, organism-based; design: dose 50 mg/kg, route oral; conditions: in vivo
# [21] = molecular target: Estrogen receptor (Homo sapiens, UniProt P03372); assay: Inhibition of fluormone ES2 green binding to recombinant full length human ERalpha expressed in insect cells by fluorescence polarization assay
# Chain of Estrogen receptor (P03372 whole entry, the tested form may be a part): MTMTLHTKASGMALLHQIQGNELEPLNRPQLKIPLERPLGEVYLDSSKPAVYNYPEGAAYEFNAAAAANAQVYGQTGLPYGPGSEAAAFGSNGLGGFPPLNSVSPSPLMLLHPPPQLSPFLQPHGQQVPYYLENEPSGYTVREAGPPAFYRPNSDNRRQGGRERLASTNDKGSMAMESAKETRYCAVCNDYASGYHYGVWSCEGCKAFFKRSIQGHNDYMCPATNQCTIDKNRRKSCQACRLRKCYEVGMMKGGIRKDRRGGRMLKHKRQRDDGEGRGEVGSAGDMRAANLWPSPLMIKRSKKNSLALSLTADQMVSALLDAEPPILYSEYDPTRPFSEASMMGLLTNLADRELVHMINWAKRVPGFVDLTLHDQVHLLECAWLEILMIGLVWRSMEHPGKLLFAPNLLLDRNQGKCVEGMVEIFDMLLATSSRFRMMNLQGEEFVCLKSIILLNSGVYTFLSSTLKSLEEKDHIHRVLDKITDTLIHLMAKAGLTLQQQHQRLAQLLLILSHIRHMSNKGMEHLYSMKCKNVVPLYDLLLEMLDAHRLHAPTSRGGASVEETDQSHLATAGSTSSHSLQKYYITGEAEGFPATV
# [22] = molecular target: Oxysterols receptor LXR-beta (Homo sapiens, UniProt P55055); assay: Agonist activity at recombinant GST-tagged human LXRbeta LBD assessed as fluorescein-labeled coactivator peptide recruitment preincubated with enzyme followed by coactivator addition by LanthaScreen TR-FRET assay
# Chain of Oxysterols receptor LXR-beta (P55055 whole entry, the tested form may be a part): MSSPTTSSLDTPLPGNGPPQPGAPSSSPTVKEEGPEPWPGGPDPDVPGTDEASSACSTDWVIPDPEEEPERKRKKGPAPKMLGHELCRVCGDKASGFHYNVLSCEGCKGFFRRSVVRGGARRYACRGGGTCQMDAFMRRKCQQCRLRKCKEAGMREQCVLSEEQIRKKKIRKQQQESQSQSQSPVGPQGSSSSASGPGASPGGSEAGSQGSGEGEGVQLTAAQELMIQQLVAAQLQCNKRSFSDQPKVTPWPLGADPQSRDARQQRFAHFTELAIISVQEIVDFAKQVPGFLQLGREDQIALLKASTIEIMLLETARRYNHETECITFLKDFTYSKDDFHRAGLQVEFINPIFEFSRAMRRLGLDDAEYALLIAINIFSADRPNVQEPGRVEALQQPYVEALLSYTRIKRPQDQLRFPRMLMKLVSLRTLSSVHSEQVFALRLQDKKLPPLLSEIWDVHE
# [23] = tested on: Rattus norvegicus; assay: Effect on STAT3 gene expression in epididymal white adipose tissue of Zucker rat sub-chronic fa/fa prediabetic model at 10 mg/kg, po qd for 15 days by microarray analysis relative to control; type: functional
# [24] = AUC (0 to 24 hrs) in Zucker rat sub-chronic fa/fa prediabetic model at 10 mg/kg, po qd measured on day 1 post dose; type: ADME, organism-based; design: time < 24 hr, dose 10 mg/kg, route oral; conditions: in vivo
# [25] = tested on: Rattus norvegicus; assay: Toxicity in Zucker rat sub-chronic fa/fa prediabetic model assessed as change in body weight at 1 mg/kg, po qd for 29 days measured on day 1 to 29 during compound dosing (reference value: 140 +/- 7 g); type: organism-based; conditions: in vivo, 696 h
# [26] = tested on: Rattus norvegicus; assay: Toxicity in Zucker rat sub-chronic fa/fa prediabetic model assessed as serum creatinine level at 1 mg/kg, po qd for 31 days measured on day 32 (reference value: 0.71 +/- 0.07 mg/dl); type: organism-based; conditions: in vivo, 744 h
# [27] = Drug uptake in muscle of Zucker rat sub-chronic fa/fa prediabetic model at 12.5 mg/kg, po qd for 11 days; type: ADME, organism-based, Muscle tissue; conditions: read-out: Drug uptake
# [28] = tested on: Rattus norvegicus; assay: Toxicity in Zucker rat sub-chronic fa/fa prediabetic model assessed as heart weight at 10 mg/kg, po qd for 31 days measured on day 32 (reference value: 1.19 +/- 0.04 g); type: organism-based; conditions: in vivo, 744 h
# [29] = tested on: Rattus norvegicus; assay: Toxicity in Zucker rat sub-chronic fa/fa prediabetic model assessed as serum AST level at 10 mg/kg, po qd for 31 days measured on day 32 (reference value: 187 +/- 37 U/L); type: organism-based; conditions: in vivo, 744 h
# [30] = tested on: Rattus norvegicus; assay: Toxicity in Zucker rat sub-chronic fa/fa prediabetic model assessed as insulin level per gram pancreas at 10 mg/kg, po qd for 31 days measured on day 32 (reference value: 55.2 +/- 5.5 ug); type: organism-based; conditions: in vivo, 744 h
# [31] = tested on: Rattus norvegicus; assay: Antidiabetic activity in Zucker rat sub-chronic fa/fa prediabetic model assessed as reduction in blood glucose AUC (0 to 120 min) at 1 mg/kg, po qd for 31 days measured on day 29 post dose by OGTT relative to control; type: functional; design: scale not given: the % may be the effect or the level left
# [32] = tested on: Rattus norvegicus; assay: Antidiabetic activity in Zucker rat sub-chronic fa/fa prediabetic model assessed as increase in serum adiponectin level at 50 mg/kg, po qd for 32 days by ELISA relative to control; type: functional
smiles,measurement,setting,value
CN1CC[C@@H](N2C(=O)S/C(=C\c3ccc4c(cnn4Cc4ccc(Cl)cc4C(F)(F)F)c3)C2=O)[C@H](F)C1,fold change (FC),[1],-1.488
same,fold change (FC),[2],-1.407
same,Activity,[3],164 mg/dL
same,Activity,[4],Active
same,fold change (FC),[5],1.548
same,Activity,[6],0.54 mg/dL
same,Activity,[7],0.7 µg/L
same,Activity,[8],Dose-dependent effect
same,Activity,[9],149 U/L
same,fold change (FC),[10],1.277
same,fold change (FC),[11],-1.288
same,concentration at 264 h,[12],12400 ng/g
same,AUC(0-t) at 24 h,[13],1400 ng·h/mL
same,Activity,[14],122 U/L
same,Activity,[15],17.8 g
same,Activity,[16],145 mg/dL
same,Activity,[17],1067 g
same,fold change (FC),[18],2.305
same,fold change (FC),[19],-1.232
same,Cmax,[20],8380 ng/mL
same,IC50,[21],> 10 µM
same,EC50,[22],> 10 µM
same,fold change (FC),[23],-1.405
same,AUC(0-t) at 24 h,[24],18100 ng·h/mL
same,Activity,[25],142 g
same,Activity,[26],0.66 mg/dL
same,concentration at 264 h,[27],2820 ng/g
same,Activity,[28],1.11 g
same,Activity,[29],98 U/L
same,Activity,[30],80.1 µg
same,Activity,[31],23%
same,fold change (FC),[32],3.3
